This data set is described as follows: log P (pH2.3). In kind it is physicochemical. Particulars: for chromatographic logP: reversed-phase HPLC column (C18).
[1] abbreviates: method [b]: LC-MS, acidic range, pH 2.7, 0.1% aqueous formic acid and acetonitrile.
The mark [2] stands for this setting: method [c]: LC-MS, neutral range, pH 7.8, 0.001 molar aqueous ammonium bicarbonate and acetonitrile.

The chromatographic logP is lipophilicity estimated from chromatographic retention.

On to `Cc1cc(C(F)F)n(CC(=O)N2CCC(c3nc(CCc4ccccc4)cs3)CC2)n1` [Example I-35], for which the log p under setting [1] was 3.37^[b].

Take `O=C(Cn1nc(C(F)(F)F)cc1C(F)(F)F)N1CCC(c2nc(CCc3cccc4ccccc34)cs2)CC1` [Example I-43]: the log p under setting [1] is 4.89^[b].

Consider `Cc1cc(C)n(CC(=O)N2CCC(c3nc(CCc4ccccc4)cs3)CC2)n1` [Example I-54], for which the log p (method [a]: HPLC, acidic range, pH 2.3, 0.1% aqueous phosphoric acid and acetonitrile) is 2.86^[a].

`O=C(Cn1ccc(C(F)(F)F)n1)N1CCC(c2nc(CCc3ccccc3)cs2)CC1` [Example I-55]: the log p under setting [1] is 3.57^[b].

Take `O=C(Cc1cccc(C(F)(F)F)c1)N1CCC(c2nc(CCc3ccccc3)cs2)CC1` [Example I-56]: the log p under setting [1] was 4.26^[b].

Take `O=C(Cc1cccc(Cl)c1)N1CCC(c2nc(CCc3ccccc3)cs2)CC1` [Example I-57]: under setting [1], the log p was 4.1^[b].

Compound `CCCCC(=O)N1CCC(c2nc(CCc3ccccc3)cs2)CC1` [Example I-58, 1-{4-[4-(2-Phenylethyl)-1,3-thiazol-2-yl]piperidin-1-yl}pentan-1-one] returned a chromatographic logP under setting [1] of 3.73.

Consider `O=C(Cn1nc(C(F)(F)F)cc1C(F)(F)F)N1CCC(c2nc(CCc3ccccc3)cs2)CC1` [Example I-59], for which the log p under setting [1] is 4.45^[b].

On to `Cc1c(Cl)c(C(F)(F)F)nn1CC(=O)N1CCC(c2nc(CCc3ccccc3)cs2)CC1` [Example I-60], for which, under setting [1], the log p was 4.34^[b].

Take `O=C(c1cc(C(F)(F)F)ccc1C(F)(F)F)N1CCC(c2nc(CCc3ccccc3)cs2)CC1` [Example I-61, [2,5-Bis(trifluoromethyl)phenyl]{4-[4-(2-phenylethyl)-1,3-thiazol-2-yl]piperidin-1-yl}methanone]: the chromatographic logP under setting [1] is 4.67.

For `O=C(c1cccc(C(F)(F)F)c1)N1CCC(c2nc(CCc3ccccc3)cs2)CC1` [Example I-62], the log p under setting [1] is 4.23^[b].

For `O=C(Cc1ccsc1)N1CCC(c2nc(CCc3ccccc3)cs2)CC1` [Example I-63, 1-{4-[4-(2-Phenylethyl)-1,3-thiazol-2-yl]piperidin-1-yl}-2-(thiophen-3-yl)ethanone], the chromatographic logP under setting [1] was 3.47.

Consider `Cc1c(Cl)c(C(F)(F)F)nn1C(C)C(=O)N1CCC(c2nc(CCc3ccccc3)cs2)CC1` (stereo not drawn) [Example I-64, 2-[4-Chloro-5-methyl-3-(trifluoromethyl)-1H-pyrazol-1-yl]-1-{4-[4-(2-phenylethyl)-1,3-thiazol-2-yl]piperidin-1-yl}propan-1-one], for which the chromatographic logP under setting [1] was found to be 4.62.

`Cn1ncc(CC(=O)N2CCC(c3nc(CCc4ccccc4)cs3)CC2)c1Cl` [Example I-65, 2-(5-Chloro-1-methyl-1H-pyrazol-4-yl)-1-{4-[4-(2-phenylethyl)-1,3-thiazol-2-yl]piperidin-1-yl}ethanone] had a chromatographic logP under setting [1] of 2.98.

Compound `COc1ccc(CCC(=O)N2CCC(c3nc(CCc4ccccc4)cs3)CC2)cc1OC` [Example I-66, 3-(3,4-Dimethoxyphenyl)-1-{4-[4-(2-phenylethyl)-1,3-thiazol-2-yl]piperidin-1-yl}propan-1-one] had a chromatographic logP under setting [1] of 3.43.

`O=C(Cc1cc(C(F)(F)F)ccc1Cl)N1CCC(c2nc(CCc3ccccc3)cs2)CC1` [Example I-67, 2-[2-Chloro-5-(trifluoromethyl)phenyl]-1-{4-[4-(2-phenylethyl)-1,3-thiazol-2-yl]piperidin-1-yl}ethanone] displayed a chromatographic logP under setting [1] of 4.73.

Regarding `CC(C(=O)N1CCC(c2nc(CCc3ccccc3)cs2)CC1)n1ccc(C(F)(F)F)n1` (stereo not drawn) [Example I-68], the log p under setting [1] was 3.93^[b].

Turning to `O=C(Cn1cccn1)N1CCC(c2nc(CCc3ccccc3)cs2)CC1` [Example I-69], the log p under setting [1] was 2.56^[b].

Under setting [1], `O=C(Cn1cc2ccccc2n1)N1CCC(c2nc(CCc3ccccc3)cs2)CC1` [Example I-70, 2-(2H-Indazol-2-yl)-1-{4-[4-(2-phenylethyl)-1,3-thiazol-2-yl]piperidin-1-yl}ethanone] showed a chromatographic logP of 3.14.

The compound `O=C(Cc1nc2ccccc2s1)N1CCC(c2nc(CCc3ccccc3)cs2)CC1` [Example I-71, 2-(1,3-Benzothiazol-2-yl)-1-{4-[4-(2-phenylethyl)-1,3-thiazol-2-yl]piperidin-1-yl}ethanone] displayed a chromatographic logP under setting [1] of 3.68.

Regarding `Cc1nc(C2CCN(C(=O)Cn3nc(C(F)(F)F)cc3C)CC2)sc1CC(C)C` [Example I-73], the log p under setting [1] is 3.75^[b].

`Cc1cc(C)n(CC(=O)N2CCC(c3nc(C#Cc4cccc5ccccc45)cs3)CC2)n1` [Example I-74]: the log p under setting [2] is 3.85^[c].

Turning to `Cc1cc(C)n(CC(=O)N2CCC(c3nc(/C=C\c4cccc5ccccc45)cs3)CC2)n1` [Example I-76], the log p under setting [1] was 3.73^[b].

As to `Cc1cc(C)n(CC(=O)N2CCC(c3nc(/C=C/c4cccc5ccccc45)cs3)CC2)n1` [Example I-77], under setting [1], the log p was 3.58^[b].

Regarding `Cc1cc(C(F)(F)F)nn1CC(=O)N1CCC(c2nc(CCc3ccccc3)c(Br)s2)CC1` [Example I-78, 1-{4-[5-Bromo-4-(2-phenylethyl)-1,3-thiazol-2-yl]piperidin-1-yl}-2-[5-methyl-3-(trifluoromethyl)-1H-pyrazol-1-yl]ethanone], the chromatographic logP under setting [1] worked out at 4.71.

In the case of `Cc1cc(C)n(CC(=O)N2CCC(c3nc(CCc4cccc5ccccc45)cs3)CC2)n1` [Example I-79], the log p under setting [2] was 3.39^[c].

Consider `Cc1cc(C)n(CC(=O)N2CCC(c3nc(CCCC(C)c4ccccc4)cs3)CC2)n1` (stereo not drawn) [Example I-83], for which the log p under setting [1] was 3.83^[b].

Take `Cc1cc(C)n(CC(=O)N2CCC(c3nc(/C=C/c4ccccc4)cs3)CC2)n1` [Example I-84]: under setting [1], the log p was 3.04^[b].

`Cc1cc(C)n(CC(=O)N2CCC(c3nc(/C=C/CC(C)c4ccccc4)cs3)CC2)n1` (stereo not drawn) [Example I-85]: the log p under setting [2] was 3.83^[c].

In turn, `C#Cc1csc(C2CCN(C(=O)Cn3nc(C(F)(F)F)cc3C)CC2)n1` [Example I-86, 1-[4-(4-Ethynyl-1,3-thiazol-2-yl)piperidin-1-yl]-2-[5-methyl-3-(trifluoromethyl)-1H-pyrazol-1-yl]ethanone] gave a chromatographic logP under setting [1] of 2.57.

Turning to `Cc1cc(C(F)(F)F)nn1CC(=O)N1CCC(c2nc(/C=C/c3cccc(C(F)(F)F)c3)cs2)CC1` [Example I-94], the log p under setting [1] was 4.46^[b].

As for `Cc1cc(C)n(CC(=O)N2CCC(c3nc(/C=C/c4cccc(C(F)(F)F)c4)cs3)CC2)n1` [Example I-96], under setting [1], the log p is 3.56^[b].

In the case of `O=C(Cc1c(F)ccc(F)c1F)N1CCC(c2nc(C#Cc3cccc4ccccc34)cs2)CC1` [Example I-97], under setting [1], the log p is 4.71^[b].

In the case of `Cc1cc(C(F)(F)F)nn1CC(=O)N1CCC(c2nc(C#Cc3ccccc3)cs2)CC1` [Example I-99], under setting [1], the log p is 3.82^[b].

Turning to `Cc1cc(C(F)(F)F)nn1CC(=O)N1CCC(c2nc(C#Cc3ccccc3Cl)cs2)CC1` [Example I-101], the log p under setting [1] is 4.12^[b].

As to `Cc1cc(C(F)(F)F)nn1CC(=O)N1CCC(c2nc(C#Cc3ccc(Cl)cc3)cs2)CC1` [Example I-102], the log p under setting [1] was 4.37^[b].

Turning to `COc1ccc(C#Cc2csc(C3CCN(C(=O)Cn4nc(C(F)(F)F)cc4C)CC3)n2)c(OC)c1` [Example I-104], the log p under setting [1] was 3.67^[b].

Take `Cc1cc(C(F)(F)F)nn1CC(=O)N1CCC(c2nc(C#Cc3ccc(Cl)cc3Cl)cs2)CC1` [Example I-105]: the log p under setting [1] is 4.72^[b].

Take `COc1ccc(OC)c(C#Cc2csc(C3CCN(C(=O)Cn4nc(C(F)(F)F)cc4C)CC3)n2)c1` [Example I-106]: the log p under setting [1] was 3.65^[b].

As to `CCc1cc(CC)n(CC(=O)N2CCC(c3nc(CCc4cccc5ccccc45)cs3)CC2)n1` [Example I-107], the log p under setting [1] is 4.04^[b].

Take `CCc1cc(C(F)(F)F)nn1CC(=O)N1CCC(c2nc(CCc3cccc4ccccc34)cs2)CC1` [Example I-108]: under setting [1], the log p is 4.65^[b].

Consider `O=C(Cn1nc(C(F)F)cc1C(F)F)N1CCC(c2nc(CCc3cccc4ccccc34)cs2)CC1` [Example I-109], for which the log p under setting [1] was 4.25^[b].

Turning to `CC(C)(C)c1cc(C(F)(F)F)n(CC(=O)N2CCC(c3nc(CCc4cccc5ccccc45)cs3)CC2)n1` [Example I-110], under setting [1], the log p is 5.36^[b].

Take `CC(C)(C)c1cc(C(F)(F)F)nn1CC(=O)N1CCC(c2nc(CCc3cccc4ccccc34)cs2)CC1` [Example I-111]: the log p under setting [1] is 5.14^[b].

In the case of `CC(C)(C)c1cc(C(F)(F)C(F)(F)F)n(CC(=O)N2CCC(c3nc(CCc4cccc5ccccc45)cs3)CC2)n1` [Example I-112], under setting [1], the log p is 5.78^[b].

Consider `CC(C)(C)c1cc(C(F)(F)C(F)(F)F)nn1CC(=O)N1CCC(c2nc(CCc3cccc4ccccc34)cs2)CC1` [Example I-113], for which the log p under setting [1] was 5.54^[b].

As to `O=C(Cn1nc(C(F)(F)F)cc1C(F)(F)F)N1CCC(c2nc(C#Cc3cccc4ccccc34)cs2)CC1` [Example I-114], under setting [1], the log p is 5.03^[b].

As to `CCc1cc(CC)n(CC(=O)N2CCC(c3nc(C#Cc4cccc5ccccc45)cs3)CC2)n1` [Example I-115], the log p under setting [1] is 4.2^[b].

Turning to `CCc1cc(C(F)(F)F)nn1CC(=O)N1CCC(c2nc(C#Cc3cccc4ccccc34)cs2)CC1` [Example I-116], the log p under setting [1] is 4.8^[b].

For the compound `O=C(Cn1nc(C(F)F)cc1C(F)F)N1CCC(c2nc(C#Cc3cccc4ccccc34)cs2)CC1` [Example I-117], the log p under setting [1] is 4.41^[b].

For `CC(C)(C)c1cc(C(F)(F)F)n(CC(=O)N2CCC(c3nc(C#Cc4cccc5ccccc45)cs3)CC2)n1` [Example I-118], the log p under setting [1] is 5.48^[b].

Take `CC(C)(C)c1cc(C(F)(F)F)nn1CC(=O)N1CCC(c2nc(C#Cc3cccc4ccccc34)cs2)CC1` [Example I-119]: the log p under setting [1] was 5.14^[b].

`CC(C)(C)c1cc(C(F)(F)C(F)(F)F)nn1CC(=O)N1CCC(c2nc(C#Cc3cccc4ccccc34)cs2)CC1` [Example I-120]: under setting [1], the log p is 5.59^[b].

With `CC(C)c1cc(C(F)(F)F)n(CC(=O)N2CCC(c3nc(CCc4cccc5ccccc45)cs3)CC2)n1` [Example I-121], under setting [1], the log p was 4.89^[b].

These data come from US7943774B2 (priority 2008, dated 2011).
